Measured values as given in PubChem BioAssay (NCI).
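Values below derive from 48-hour exposures of cells grown in 96-well plates, with endpoints linearly interpolated between the two concentrations bracketing the appropriate inhibition level. At the TGI there is no net growth.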

Tests used:
Assay in all cases: growth of human tumour cells (NCI), 48 h
786-0 renal = test system: 786-0 renal
A498 renal = test system: A498 renal
A549 NSCLC = test system: A549 NSCLC
ACHN renal = test system: ACHN renal
BT-549 breast = test system: BT-549 breast
CAKI-1 renal = test system: CAKI-1 renal
CCRF-CEM leukemia = test system: CCRF-CEM leukemia
COLO 205 colon = test system: COLO 205 colon
DU-145 prostate = test system: DU-145 prostate
EKVX NSCLC = test system: EKVX NSCLC
HCC-2998 colon = test system: HCC-2998 colon
HCT-116 colon = test system: HCT-116 colon
HCT-15 colon = test system: HCT-15 colon
HL-60(TB) leukemia = test system: HL-60(TB) leukemia
HOP-62 NSCLC = test system: HOP-62 NSCLC
HOP-92 NSCLC = test system: HOP-92 NSCLC
HS 578T breast = test system: HS 578T breast
HT29 colon = test system: HT29 colon
IGROV1 ovarian = test system: IGROV1 ovarian
K-562 leukemia = test system: K-562 leukemia
KM12 colon = test system: KM12 colon
LOX IMVI melanoma = test system: LOX IMVI melanoma
M14 melanoma = test system: M14 melanoma
MALME-3M melanoma = test system: MALME-3M melanoma
MCF7 breast = test system: MCF7 breast
MDA-MB-231 breast = test system: MDA-MB-231 breast
MDA-MB-435 = test system: MDA-MB-435
MDA-N = test system: MDA-N
MOLT-4 leukemia = test system: MOLT-4 leukemia
NCI-H226 lung = test system: NCI-H226 lung
NCI-H23 lung = test system: NCI-H23 lung
NCI-H460 lung = test system: NCI-H460 lung
NCI-H522 lung = test system: NCI-H522 lung
NCI/ADR-RES ovarian = test system: NCI/ADR-RES ovarian
OVCAR-3 ovarian = test system: OVCAR-3 ovarian
OVCAR-4 ovarian = test system: OVCAR-4 ovarian
OVCAR-5 ovarian = test system: OVCAR-5 ovarian
OVCAR-8 ovarian = test system: OVCAR-8 ovarian
PC-3 prostate = test system: PC-3 prostate
RPMI-8226 leukemia = test system: RPMI-8226 leukemia
RXF 393 renal = test system: RXF 393 renal
SF-268 CNS = test system: SF-268 CNS
SF-295 CNS = test system: SF-295 CNS
SF-539 CNS = test system: SF-539 CNS
SK-MEL-2 melanoma = test system: SK-MEL-2 melanoma
SK-MEL-28 melanoma = test system: SK-MEL-28 melanoma
SK-MEL-5 melanoma = test system: SK-MEL-5 melanoma
SK-OV-3 ovarian = test system: SK-OV-3 ovarian
SN12C renal = test system: SN12C renal
SNB-19 CNS = test system: SNB-19 CNS
SNB-75 CNS = test system: SNB-75 CNS
SR leukemia = test system: SR leukemia
SW-620 colon = test system: SW-620 colon
T-47D breast = test system: T-47D breast
TK-10 renal = test system: TK-10 renal
U251 CNS = test system: U251 CNS
UACC-257 melanoma = test system: UACC-257 melanoma
UACC-62 melanoma = test system: UACC-62 melanoma
UO-31 renal = test system: UO-31 renal
DLD-1 colon = test system: DLD-1 colon
DMS 273 small cell lung = test system: DMS 273 small cell lung
KM20L2 colon = test system: KM20L2 colon
LXFL 529 NSCLC = test system: LXFL 529 NSCLC
M19-MEL melanoma = test system: M19-MEL melanoma
SNB-78 CNS = test system: SNB-78 CNS
XF 498 CNS = test system: XF 498 CNS
DMS 114 small cell lung = test system: DMS 114 small cell lung

Measured: TGI

CN(C)CC1CN(C(=O)Nc2ccccc2)C(=N)O1 (stereo unspecified)
not listed: DLD-1 colon | DMS 273 small cell lung | KM20L2 colon | LXFL 529 NSCLC | M19-MEL melanoma | SNB-78 CNS | XF 498 CNS | DMS 114 small cell lung
> 100 µM: all other assays above

CCC(/C=C/c1ccccc1)=N\N=C(\C=C\c1ccccc1)CC
not listed: BT-549 breast | CAKI-1 renal | DU-145 prostate | HOP-92 NSCLC | HS 578T breast | MCF7 breast | MDA-MB-231 breast | MDA-MB-435 | MDA-N | NCI/ADR-RES ovarian | PC-3 prostate | RXF 393 renal | SF-539 CNS | T-47D breast | DMS 114 small cell lung
> 100 µM: all other assays above

Nc1nc(Cl)cc(NCC2(CO)CC(Cc3ccccc3)C2)n1 (stereo unspecified)
> 96.5 µM: TK-10 renal
78.7 µM: A498 renal
> 95.1 µM: EKVX NSCLC
> 91.1 µM: NCI-H226 lung
> 93.5 µM: RXF 393 renal
> 88.6 µM: HCC-2998 colon | HOP-92 NSCLC
> 80.5 µM: BT-549 breast
> 72.5 µM: SK-MEL-2 melanoma
> 46.4 µM: HL-60(TB) leukemia
65.5 µM: NCI/ADR-RES ovarian
> 86.9 µM: MDA-N
> 72.4 µM: HT29 colon
37.1 µM: M14 melanoma
> 41.9 µM: SK-MEL-5 melanoma
> 62.9 µM: RPMI-8226 leukemia
> 90.8 µM: PC-3 prostate
> 82.3 µM: UACC-257 melanoma
> 77.7 µM: MCF7 breast
> 59.6 µM: COLO 205 colon
> 78.1 µM: MDA-MB-435
> 71.4 µM: MOLT-4 leukemia
> 65.4 µM: T-47D breast
> 81.6 µM: K-562 leukemia
> 31.6 µM: SF-268 CNS
> 56.1 µM: SR leukemia
not listed: DLD-1 colon | DMS 273 small cell lung | KM20L2 colon | LXFL 529 NSCLC | M19-MEL melanoma | SNB-78 CNS | XF 498 CNS | DMS 114 small cell lung
> 100 µM: all other assays above

COC(=O)[C@]1(C)CCC[C@]2(C)C3CC4OOC3(C=C4C(C)C)CCC21 (stereo partly specified)
17.6 µM: 786-0 renal
14 µM: CCRF-CEM leukemia
34.4 µM: SK-OV-3 ovarian
31.2 µM: ACHN renal
32.3 µM: SNB-78 CNS | UACC-62 melanoma
49.8 µM: MOLT-4 leukemia
61.5 µM: HOP-62 NSCLC
25.7 µM: NCI-H460 lung
30.3 µM: UO-31 renal
31.5 µM: SK-MEL-2 melanoma
32.4 µM: KM12 colon
35.7 µM: IGROV1 ovarian
33.7 µM: K-562 leukemia
37.1 µM: U251 CNS
45.7 µM: OVCAR-4 ovarian
41.8 µM: OVCAR-8 ovarian
34.5 µM: DMS 273 small cell lung
11.5 µM: LOX IMVI melanoma
26.6 µM: SR leukemia
41.6 µM: MALME-3M melanoma
29.6 µM: SK-MEL-5 melanoma
62.3 µM: CAKI-1 renal
30.7 µM: SF-539 CNS
31.3 µM: SF-295 CNS | SNB-19 CNS
29.1 µM: DLD-1 colon
34.8 µM: SW-620 colon
3.41 µM: NCI-H522 lung
32.8 µM: NCI-H23 lung
30.4 µM: EKVX NSCLC | HCC-2998 colon | M14 melanoma
41.5 µM: OVCAR-5 ovarian
4.15 µM: HL-60(TB) leukemia
28 µM: DMS 114 small cell lung
33.9 µM: A549 NSCLC
82.1 µM: TK-10 renal
23.5 µM: A498 renal
30.1 µM: HCT-15 colon | SF-268 CNS
27.2 µM: LXFL 529 NSCLC
39.4 µM: COLO 205 colon
29.4 µM: HT29 colon
31.7 µM: SN12C renal
35.4 µM: NCI-H226 lung
29 µM: HCT-116 colon
36 µM: RPMI-8226 leukemia
32 µM: KM20L2 colon | UACC-257 melanoma
76.6 µM: OVCAR-3 ovarian
